Results as given in ChEMBL document CHEMBL1201862, “PubChem BioAssay data set” (2004).
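Cells were grown in 96-well plates and exposed to each compound for 48 hours at five concentrations; endpoints were interpolated linearly between bracketing concentrations, or set to the highest concentration if not reached. Here, GI50 denotes the concentration required for 50% inhibition of growth.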 Activity calls are given as the source filed them. Rule as the data show it: active = GI50 up to about 1.1 µM and inactive = higher.

Columns and labels:
Experiment in all cases: NCI anticancer screen, dose series, 48 h
A498 = tested on: A498
A549 = tested on: A549
CAKI-1 = tested on: CAKI-1
CCRF-CEM = tested on: CCRF-CEM
COLO 205 = tested on: COLO 205
DLD-1 = tested on: DLD-1
DMS-114 = tested on: DMS-114
DMS-273 = tested on: DMS-273
EKVX = tested on: EKVX
HCC 2998 = tested on: HCC 2998
HCT-116 = tested on: HCT-116
HCT-15 = tested on: HCT-15
HL-60 = tested on: HL-60
HOP-18 = tested on: HOP-18
HOP-62 = tested on: HOP-62
HOP-92 = tested on: HOP-92
HT-29 = tested on: HT-29
IGROV-1 = tested on: IGROV-1
K562 = tested on: K562
KM-20L2 = tested on: KM-20L2
KM12 = tested on: KM12
LOX IMVI = tested on: LOX IMVI
M19-MEL = tested on: M19-MEL
MCF7 = tested on: MCF7
MOLT-4 = tested on: MOLT-4
Malme-3M = tested on: Malme-3M
NCI-H226 = tested on: NCI-H226
NCI-H23 = tested on: NCI-H23
NCI-H460 = tested on: NCI-H460
NCI-H522 = tested on: NCI-H522
NCI/ADR-RES = tested on: NCI/ADR-RES
OVCAR-3 = tested on: OVCAR-3
OVCAR-4 = tested on: OVCAR-4
OVCAR-5 = tested on: OVCAR-5
OVCAR-8 = tested on: OVCAR-8
RPMI-8226 = tested on: RPMI-8226
RXF 393 = tested on: RXF 393
SF-268 = tested on: SF-268
SF-295 = tested on: SF-295
SF-539 = tested on: SF-539
SK-MEL-28 = tested on: SK-MEL-28
SK-MEL-2 = tested on: SK-MEL-2
SK-MEL-5 = tested on: SK-MEL-5
SK-OV-3 = tested on: SK-OV-3
SN12C = tested on: SN12C
SNB-19 = tested on: SNB-19
SNB-75 = tested on: SNB-75
SNB-78 = tested on: SNB-78
SW-620 = tested on: SW-620
U-251 = tested on: U-251
UACC-257 = tested on: UACC-257
UACC-62 = tested on: UACC-62
UO-31 = tested on: UO-31
XF498 = tested on: XF498

With `O=C(O)CCC(NC(=O)c1ccc(Nc2nc3ccc(C(F)(F)F)cc3nc2-c2ccccc2)cc1)C(=O)O` (centres undefined) the GI50 (A498) was > 100 µM (inactive), the GI50 (A549) was > 100 µM (inactive) and the GI50 (CAKI-1) was > 57.8 µM (inactive). For the same compound, the GI50 (CCRF-CEM) was > 100 µM (inactive), the GI50 (COLO 205) was > 100 µM (inactive) and the GI50 (DLD-1) was > 100 µM (inactive). For the same compound, the GI50 (DMS-114) was > 100 µM (inactive), the GI50 (DMS-273) was > 100 µM (inactive) and the GI50 (EKVX) was > 100 µM (inactive). The GI50 (HCC 2998) was > 100 µM (inactive), the GI50 (HCT-116) was > 100 µM (inactive) and the GI50 (HCT-15) was > 100 µM. The GI50 (HL-60) was > 100 µM (inactive), the GI50 (HOP-18) was 3.37 µM (inactive) and the GI50 (HOP-62) was > 100 µM (inactive). For the same compound, the GI50 (HOP-92) was > 46.6 µM (inactive), the GI50 (HT-29) was > 100 µM (inactive) and the GI50 (IGROV-1) was > 100 µM (inactive). For the same compound, the GI50 (K562) was 29.6 µM (inactive), the GI50 (KM-20L2) was > 100 µM (inactive) and the GI50 (KM12) was > 100 µM (inactive). For the same compound, the GI50 (LOX IMVI) was > 100 µM (inactive), the GI50 (M19-MEL) was > 100 µM (inactive) and the GI50 (MCF7) was > 100 µM (inactive). The GI50 (MOLT-4) was > 100 µM (inactive), the GI50 (Malme-3M) was > 100 µM (inactive) and the GI50 (NCI-H226) was > 100 µM (inactive). The GI50 (NCI-H23) was > 100 µM (inactive), the GI50 (NCI-H460) was > 100 µM (inactive) and the GI50 (NCI-H522) was > 100 µM (inactive). The GI50 (NCI/ADR-RES) was > 100 µM (inactive), the GI50 (OVCAR-3) was > 100 µM (inactive) and the GI50 (OVCAR-4) was > 100 µM (inactive). For the same compound, the GI50 (OVCAR-5) was > 100 µM (inactive), the GI50 (OVCAR-8) was > 100 µM (inactive) and the GI50 (RPMI-8226) was > 100 µM (inactive). For the same compound, the GI50 (RXF 393) was > 100 µM (inactive), the GI50 (SF-268) was > 100 µM (inactive) and the GI50 (SF-295) was > 100 µM (inactive). The GI50 (SF-539) was > 100 µM (inactive), the GI50 (SK-MEL-28) was > 100 µM (inactive) and the GI50 (SK-MEL-2) was > 100 µM (inactive). The GI50 (SK-MEL-5) was > 100 µM (inactive), the GI50 (SK-OV-3) was > 100 µM (inactive) and the GI50 (SN12C) was > 100 µM (inactive). The GI50 (SNB-19) was > 100 µM (inactive), the GI50 (SNB-75) was > 100 µM (inactive) and the GI50 (SNB-78) was > 100 µM (inactive). The GI50 (SW-620) was > 100 µM (inactive), the GI50 (U-251) was > 83 µM (inactive) and the GI50 (UACC-257) was > 100 µM (inactive). For the same compound, the GI50 (UACC-62) was > 100 µM (inactive), the GI50 (UO-31) was > 100 µM (inactive) and the GI50 (XF498) was 98.4 µM (inactive).
